In US20190337971A1, “PANTETHEINE DERIVATIVES FOR THE TREATMENT OF NEUROLOGIC DISORDERS” (Retrophin, Inc., priority 2016, published 2019):
Read-outs that look alike come from different tables or passages of the source.

What was measured:
[1] = Stability of compounds in human hepatocytes; assay type: in vitro ADME; conditions: cryopreserved human hepatocytes in suspension, 37° C., 0-240 min
Protocol: Stability in hepatocytes for select compounds disclosed in the application was evaluated in two species (mouse and human) according to the following procedure. Compounds and positive control samples were dissolved in 100% DMSO at 5 mM. Cryopreserved hepatocytes were thawed and resuspended in Hepatocyte Basal Medium (HBM-Lonza CC-3199) supplemented with CC-4182 (complete hepatocyte culture medium). Test compounds were diluted into cell suspension (1 million cells/ml) from the stock solutions to have a test compound concentration of 5 μM (0.1% DMSO). Incubation was performed in 24-well plates, at 37° C. in a DUBNOFF water bath, under low shaking. Each compound was tested at 6 time points, in duplicates (0, 15, 30, 60, 120, and 240 min). At each time point, an aliquot of 120 μl was taken and transferred to a 96-well deep plate. The reaction was stopped with the addition of one volume of 100% acetonitrile plus 0.1% formic acid and the appropriate internal standard. Samples then were centrifuged at 1100×g for 30 min at +4° C. and supernatants were transferred to a new 96-deepwell plate. Samples were evaporated under N2 and reconstituted in H2O/ACN 0.1% formic Acid (98:2). Analysis was performed without a calibration curve (Acquity UPLC-Waters; Sciex API4000). Time 0 was obtained adding acetonitrile before addition of the test compound. Stability was determined based on analysis of disappearance of the compounds as a function of incubation time. Quantification of test compounds was measured as a peak area relative to an internal standard. The elimination constant, k, is calculated by plotting mean disappearance values on a semi-logarithmic scale and fitting with a best fit linear regression. The half-life (t1/2) expressed in hours was derived using Equation 1:
t1/2=ln 2/(−k). Equation 1: […]

[2] = Stability in human whole blood; assay type: in vitro ADME; conditions: 37° C., up to 60 min
Protocol: The stability of selected compounds in human whole blood was evaluated according to the following protocol. Compounds and positive control samples were dissolved in 100% DMSO at 3 mM (stock solution). To investigate the stability of the test compounds in whole blood, a 200 μM working solution (WS) in water has been prepared by adding 66.66 μl of each 3 mM stock solution to 933.34 μl of water (6.66% DMSO content). After pre-incubation of the whole blood at 37° C. for 5 min in an eppendorf, 10.5 μl of each working solution were spiked into 689.5 μl of heated blood. The obtained 3 μM solution in blood (0.1% DMSO content) was quickly stirred and 100 μl for each time point were transferred to an eppendorf. Each compound was tested in duplicate at five time points (10, 20, 30, 40 and 60 min). At each time point, the reaction was stopped by quenching the spiked blood (100 μl) with 400 μl of 100% acetonitrile containing 0.1% formic acid. Then samples were centrifuged at 15600 rpm for 15 min at +4° C. and 200 μl of supernatant were transferred to a 96-deepwell plate. Samples were evaporated under N2 and reconstituted in H2O/ACN 0.1% formic Acid (98/2 v/v) containing the appropriate internal standard. Analysis was performed without a calibration curve by using an Acquity-UPLC (Waters) coupled to a triple quadrupole mass spectrometer (SciexAPI4000). Time point 0 was obtained by adding 3 μL of each 200 μM working solution to 997 μL of the supernatant obtaining after centrifugation (15600 rpm for 15 min at +4° C.) of the blank matrix quenched with acetonitrile containing 0.1% formic acid.
Stability was determined based on analysis of disappearance of the compounds as a function of incubation time. Quantification of test compounds was measured as a peak area relative to an internal standard. The elimination constant k and half-life (t1/2) were determined as described above in Example 7.

[3] = system: PANK2−/− IMR32 cells; assay: Coenzyme A assay in PANK2 silenced cells (LC-MS quantification of free CoA); assay type: cell-based, human; conditions: Homo sapiens, IMR-32; compound concentration 50 uM; fold increase in CoA levels relative to controls; treated twice, 24 h + 24 h
[4] = Diastereoisomer A (upfield shift in 31P NMR), read-out: t1/2 (h) Human Hepatocytes Diastereoisomer A (converted)
[5] = Diastereoisomer B, read-out: t1/2 (h) Human Hepatocytes Diastereoisomer B (converted)
[6] = Diastereoisomer A (upfield shift in 31P NMR), read-out: t1/2 (h) Human Whole Blood Diastereoisomer A (converted)
[7] = Diastereoisomer B, read-out: t1/2 (h) Human Whole Blood Diastereoisomer B (converted)

| half-life at 5 μM [1, 4] [h] | half-life at 5 μM [1, 5] [h] | half-life at 3 μM [2, 6] [h] | half-life at 3 μM [2, 7] [h] | Structure (SMILES) | fold induction at 50 µM [3] |
| --- | --- | --- | --- | --- | --- |
| 0.42 | 0.35 | 0.37 | < 0.16 | CC(=O)SCCNC(=O)CCNC(=O)[C@@H]1OP(=O)(OCOC(=O)c2scnc2C)OCC1(C)C (stereo partly drawn) [R1006, (((4R)-4-((3-((2-(acetylthio)ethyl)amino)-3-oxopropyl)carbamoyl)-5,5-dimethyl-2-oxido-1,3,2-dioxaphosphinan-2-yl)oxy)methyl 4-methylthiazole-5-carboxylate] | 117 |
| 0.25 | 0.21 | 0.34 | < 0.16 | CC(=O)SCCNC(=O)CCNC(=O)[C@@H]1OP(=O)(OCOC(=O)c2cc(C)nn2C)OCC1(C)C (stereo partly drawn) [R1007, (((4R)-4-((3-((2-(acetylthio)ethyl)amino)-3-oxopropyl)carbamoyl)-5,5-dimethyl-2-oxido-1,3,2-dioxaphosphinan-2-yl)oxy)methyl 1,3-dimethyl-1H-pyrazole-5-carboxylate] | 109 |
